Assay results as given in patent US7923473B2, “Aromatic compounds and their use in medical applications” (Revotar Biopharmaceuticals AG, priority 2005, dated 2011).

Key:
[1] = target: human L-Selectin-IgG-chimera (Homo sapiens, UniProt P14151); experiment: Sialyl Lewis^x Tyrosine Sulfate Assay (sLe^x TSA), L-selectin; conditions: inhibition of binding of selectin chimera to sLe^x-tyrosine sulfate polyacrylamide ligand complex
Procedure: (§1) Compounds of the present invention are assayed on a molecular level for their ability to inhibit the binding of P-, L-, or E-selectin chimeric molecules to sLe^x and tyrosinesulfate residues linked to a polymeric matrix as a PSGL-1 substitute. IC50-values are determined.
(§2) Microtiter plates are coated overnight in carbonate buffer pH9.6 with goat anti human Fc mAB (10 μg/ml). After washing in assay buffer (25 mM 4-(2-hydroxyethyl)-1-piperazineethanesulfonic acid (HEPES), 150 mM NaCl, 1 mM CaCl2 pH7.4) and blocking (3% bovine serum albumin (BSA) in assay buffer) plates are incubated for 2 h at 37° C. with human P-Selectin-IgG-chimera (0.61 nM respectively 150 ng/mL) or human L-Selectin-IgG-chimera (0.61 nM respectively 89 ng/mL) or human E-Selectin-IgG-chimera (0.61 nM respectively 131 ng/mL). 5 μl of sLe^x-tyrosine sulfate polyacrylamide (1 mg/ml) carrying 15% sLe^x, 10% Tyrosine-sulfate and 5% biotin is complexed with 20 μl Streptavidin-Peroxidase solution (1 mg/ml) and 25 μl assay buffer without CaCl2. For use in the assay, the ligand complex is diluted 1:10000 in assay buffer and further diluted 1:1 with varying amounts of compounds in assay buffer incl. 2% DMSO. This mixture is added to the wells precoated with E- or P-selectin. After incubation for 2 h at 37° C., wells are washed for six times with in assay buffer incl. 0.005% Polyoxyethylenesorbitan monolaurate (TWEEN 20), developed for 10-15 min with 20 μl 3,3′,5,5′-tetramethylbenzidine (TMB)/H202 substrate solution and stopped with 20 μl 1 M H2SO4. Bound sLe^x-Tyrosine sulfate ligand complex is determined by measuring optical density at 450 nm vs. 620 nm in a Fusion alpha-FP reader (sold from Packard Bioscience, Dreieich, Germany).

[2] = target: T1, human P-Selectin-IgG-chimera (Homo sapiens, UniProt P16109); experiment: Sialyl Lewis^x Tyrosine Sulfate Assay (sLe^x TSA), P-selectin; conditions: inhibition of binding of selectin chimera to sLe^x-tyrosine sulfate polyacrylamide ligand complex
Procedure: as §1, §2

[3] = target: T2, human E-Selectin-IgG-chimera (Homo sapiens, UniProt P16581); experiment: Sialyl Lewis^x Tyrosine Sulfate Assay (sLe^x TSA), E-selectin; conditions: inhibition of binding of selectin chimera to sLe^x-tyrosine sulfate polyacrylamide ligand complex
Procedure: as §1, §2

[4] = target: T1, human P-Selectin-IgG-chimera; experiment: Flow chamber assay / cell adhesion and rolling under flow conditions, P-selectin; assay type: cell-based; conditions: 125 μM compound; HL-60 cells; flow shear 1 dyne/cm^2; attached cells after 5 minutes continuous flow
Procedure: (§3) To assess the capability of compounds to inhibit cell binding under dynamic conditions resembling the flow in a blood vessel, flow chamber assays addressing/testing binding of HL-60 cells/various cell lines to P-selectin, L-selectin and E-selectin chimeric molecules are performed.
(§4) Cell attachment under flow conditions are determined using a parallel flow chamber system. A 35 mm polystyrene culture dish is coated for 1 hour at room temperature with coating buffer (50 mM tris-(hydroxymethyl)aminomethane buffer (Tris), 150 mM NaCl, 2 mM CaCl2; pH 7.4) containing human E- or P-selectin-IgG chimera at concentrations of 2.5 μg/ml or 10 μg/ml, respectively. After removal of the coating solution non specific binding sites are blocked for an additional hour with 1% BSA in coating buffer at room temperature. After washing with assay buffer (“Roswell Park Memorial Institute 1640” (RPMI 1640)+10 mM HEPES) the dish is fitted into a parallel plate laminar flow chamber (sold from Glycotech, Rockville, Md.) and mounted on an inverted phase-contrast microscope (sold from Olympus, Hamburg, Germany) equipped with a CCD camera (JVC) that is connected to a PC. Employing a peristaltic pump (sold from Ismatec, Wertheim-Mondfeld, Germany) the re-circulating system is equilibrated with assay buffer containing 125 μM compound or vehicle control (DMSO). Cells (1 million/ml) are added to the chamber and allowed to distribute for 2 minutes at a high flow rate. The flow rate is then decreased resulting in a calculated flow shear of 1 dyne/cm^2. Video sequences of 10 low power fields are digitally recorded after 5 minutes continuous flow. The percentage of modulation is calculated from the mean number of cells per field that attached to the coated dish surface in the presence versus absence of compound of […].

[5] = target: T2, human E-Selectin-IgG-chimera; experiment: Flow chamber assay / cell adhesion and rolling under flow conditions, E-selectin; assay type: cell-based; conditions: 125 μM compound; HL-60 cells; flow shear 1 dyne/cm^2; attached cells after 5 minutes continuous flow
Procedure: as §3, §4

T1 sequence (P16109 with tags, fused parts or gaps limits assumed): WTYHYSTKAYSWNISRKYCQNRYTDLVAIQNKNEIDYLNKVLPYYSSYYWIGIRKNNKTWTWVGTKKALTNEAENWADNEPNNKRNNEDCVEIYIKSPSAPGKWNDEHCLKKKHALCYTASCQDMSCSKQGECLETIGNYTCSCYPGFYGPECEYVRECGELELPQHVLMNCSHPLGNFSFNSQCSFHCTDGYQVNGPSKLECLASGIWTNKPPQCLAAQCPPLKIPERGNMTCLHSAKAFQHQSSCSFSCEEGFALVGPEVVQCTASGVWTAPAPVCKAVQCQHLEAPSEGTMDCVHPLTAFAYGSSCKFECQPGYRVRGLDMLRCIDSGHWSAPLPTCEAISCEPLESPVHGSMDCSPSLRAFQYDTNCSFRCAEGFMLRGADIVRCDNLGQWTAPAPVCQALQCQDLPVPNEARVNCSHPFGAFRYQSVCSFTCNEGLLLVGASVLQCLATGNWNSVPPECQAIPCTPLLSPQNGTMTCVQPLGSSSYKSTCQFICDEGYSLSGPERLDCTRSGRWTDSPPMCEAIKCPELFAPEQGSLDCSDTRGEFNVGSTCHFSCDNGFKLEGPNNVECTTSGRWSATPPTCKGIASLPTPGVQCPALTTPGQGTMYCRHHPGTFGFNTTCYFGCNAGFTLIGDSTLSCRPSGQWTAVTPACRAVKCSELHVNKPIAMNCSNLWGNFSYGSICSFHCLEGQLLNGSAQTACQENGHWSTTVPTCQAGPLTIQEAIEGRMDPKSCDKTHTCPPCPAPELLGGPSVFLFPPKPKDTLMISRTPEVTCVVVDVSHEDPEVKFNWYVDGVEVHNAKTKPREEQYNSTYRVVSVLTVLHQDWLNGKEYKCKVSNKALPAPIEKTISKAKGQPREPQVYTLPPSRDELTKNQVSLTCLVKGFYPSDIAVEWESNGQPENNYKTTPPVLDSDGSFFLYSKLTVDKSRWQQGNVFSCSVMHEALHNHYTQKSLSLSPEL
T2 sequence (P16581 with tags, fused parts or gaps limits assumed): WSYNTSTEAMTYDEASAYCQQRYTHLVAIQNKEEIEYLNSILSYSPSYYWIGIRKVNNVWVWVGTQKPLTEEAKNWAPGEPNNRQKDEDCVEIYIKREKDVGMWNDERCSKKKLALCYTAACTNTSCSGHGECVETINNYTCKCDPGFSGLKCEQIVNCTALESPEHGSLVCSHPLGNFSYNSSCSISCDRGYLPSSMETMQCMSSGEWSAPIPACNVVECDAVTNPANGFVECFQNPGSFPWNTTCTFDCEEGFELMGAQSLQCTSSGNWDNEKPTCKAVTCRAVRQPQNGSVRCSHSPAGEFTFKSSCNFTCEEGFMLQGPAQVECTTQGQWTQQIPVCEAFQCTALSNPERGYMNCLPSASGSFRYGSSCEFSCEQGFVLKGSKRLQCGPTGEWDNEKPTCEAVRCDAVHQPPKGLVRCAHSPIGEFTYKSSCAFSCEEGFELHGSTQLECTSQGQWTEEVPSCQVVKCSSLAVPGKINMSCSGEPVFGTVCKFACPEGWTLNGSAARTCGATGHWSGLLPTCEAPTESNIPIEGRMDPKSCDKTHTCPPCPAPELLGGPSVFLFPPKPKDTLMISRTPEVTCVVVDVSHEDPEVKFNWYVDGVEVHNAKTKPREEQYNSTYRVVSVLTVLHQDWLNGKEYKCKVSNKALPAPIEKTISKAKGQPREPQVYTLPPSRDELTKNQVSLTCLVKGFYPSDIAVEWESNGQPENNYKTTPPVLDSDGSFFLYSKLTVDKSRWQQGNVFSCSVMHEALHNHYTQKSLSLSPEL
Sequence of human L-Selectin-IgG-chimera (P14151 with tags, fused parts or gaps limits assumed): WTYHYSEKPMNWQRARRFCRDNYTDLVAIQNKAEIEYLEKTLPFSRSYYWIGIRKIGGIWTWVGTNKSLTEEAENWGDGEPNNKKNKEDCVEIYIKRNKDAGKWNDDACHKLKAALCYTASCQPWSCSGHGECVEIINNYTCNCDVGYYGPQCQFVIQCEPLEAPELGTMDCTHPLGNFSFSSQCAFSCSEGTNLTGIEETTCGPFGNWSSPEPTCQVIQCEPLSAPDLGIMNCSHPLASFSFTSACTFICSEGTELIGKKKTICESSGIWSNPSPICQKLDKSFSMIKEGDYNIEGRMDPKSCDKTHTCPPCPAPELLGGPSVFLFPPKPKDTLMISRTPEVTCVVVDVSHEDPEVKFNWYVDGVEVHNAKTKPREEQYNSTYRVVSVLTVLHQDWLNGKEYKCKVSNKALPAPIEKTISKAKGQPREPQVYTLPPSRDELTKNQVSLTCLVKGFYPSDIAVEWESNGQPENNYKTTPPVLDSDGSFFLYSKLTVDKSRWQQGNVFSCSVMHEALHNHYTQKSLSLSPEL

SMILES | IC50 [1] [µM] | IC50 [2] [µM] | IC50 [3] [µM] | P-Selectin normalized ratio of %-inhibition of compound divided by %-inhibition of bimosiamose [4] [Ratio] | E-Selectin normalized ratio of %-inhibition of compound divided by %-inhibition of bimosiamose [5] [Ratio]
CCOC(=O)c1cc(-c2ccc(NC(=O)Cc3ccc(OC)c(OC)c3OC)cc2)oc1C [Compound 62] | 45.3 | 46.4 | 74.7 | – | –
COc1ccc(-c2cccc(C(=O)Nc3ccccc3-c3ccc(C(=O)O)s3)c2)c(OC)c1OC [Compound 64] | 383 | 107 | > 500 | 1.01 | 1.27
COc1ccc(-c2cccc(C(=O)Nc3ccccc3-c3ccc(Cc4nnn[nH]4)s3)c2)c(OC)c1OC [Compound 87, 2′,3′,4′-Trimethoxy-biphenyl-3-carboxylic acid {2-[5-(1H-tetrazol-5-ylmethyl)-thiophen-2-yl]-phenyl}-amide] | 59.5 | 32.6 | – | 2.62 | 1.23
COc1ccc(-c2cccc(C(=O)Nc3ccccc3-c3ccc(CC(=O)O)s3)c2)c(OC)c1OC [Compound 61] | 385 | 186 | > 500 | – | –

The next lines start with the values.

IC50 [1] [µM] | IC50 [2] [µM] | IC50 [3] [µM] | P-Selectin normalized ratio of %-inhibition of compound divided by %-inhibition of bimosiamose [4] [Ratio] | E-Selectin normalized ratio of %-inhibition of compound divided by %-inhibition of bimosiamose [5] [Ratio] | SMILES
12.8 | 15 | 18.2 | – | – | COc1cc(CCC(=O)Nc2cccc(N)c2)cc(OC)c1OC [Compound 60]
> 500 | – | – | – | – | O=C(O)Cc1cccc(-c2cc(CCCCCCc3ccc(O[C@H]4O[C@H](CO)[C@@H](O)[C@H](O)[C@@H]4O)c(-c4cccc(CC(=O)O)c4)c3)ccc2O[C@H]2O[C@H](CO)[C@@H](O)[C@H](O)[C@@H]2O)c1 [Bimosiamose, bimosiamose, reference compound]
76.1 | 28.5 | > 500 | 1.06 | 1.46 | COc1ccc(-c2cc(C(=O)Nc3ccccc3-c3ccc(CC(=O)O)s3)cc([N+](=O)[O-])c2)c(OC)c1OC [Compound 63]
